According to patent US20080069899A1, “Pharmaceutical Compositions Comprising Beta-Carboline Derivatives and Use Thereof for the Treatment of Cancer” (priority 2004, published 2008):
Values joined by “and” are separate entries in the source; they are usually repeats but may differ in a detail not shown here. Identical values can stand only once. Like-named read-outs stand apart in the source and are kept apart here.

Tests used:
[1] = system: HT29 (colon); assay: in vitro cytotoxicity test (neutral red, 96-well microplate); type: cell-based; settings: Homo sapiens, HT-29, 96 h, incubation 4 days
Protocol: (§1) The cytotoxic effects of the different alkaloid extracts of P. harmala were studied on several cell lines: • human leukemia cell lines: K562 and Jurkat (leukemia), U937 (myeloma), • human solid tumor cell lines: KB (epithelioma of the nasopharynx) and HT29 (colon), • immortalized human bone marrow endothelial cell lines: HBMEC.
(§2) The cells are cultured in an oven under a 5% CO2 atmosphere and at 37° C., in RPMI 1640 medium for K562, Jurkat, U937 and HT29 and DMEM for KB, supplemented with 10% foetal calf serum, 0.01% penicillin-streptomycin and L-glutamine 2 mM and in EGM2 medium for the HBMEC cells.
(§3) The cytotoxicity test is carried out in a 96-well microplate in the presence of the extract to be tested at varying concentrations of 40, 20, 10, 5, 1, 0.5 μg/ml and in the absence of product, after incubation for 4 days at 37° C. On the 3rd day, a solution of neutral red is added which is absorbed by living cells. The optical density (OD) of dye released by lyzed cells is measured at 540 nm by an Elisa plate reader. The toxicity (% inhibition of growth) is inversely proportional to the optical density.
(§4) The percentage of inhibition is defined as being the difference between the OD without product and the OD in the presence of product compared to the OD without product.
(§5) The concentration inhibiting 50% of cell growth is obtained from the curve representing the percentage of inhibition as a function of the logarithm of the concentration.

[2] = system: KB (epithelioma of the nasopharynx); assay: as above; type: cell-based; settings: Homo sapiens, 96 h, incubation 4 days
Protocol: as §1, §2, §3, §4, §5

[3] = system: Jurkat (leukemia); assay: as above; type: cell-based; settings: Homo sapiens, 96 h, incubation 4 days
Protocol: as §1, §2, §3, §4, §5

[4] = system: HBMEC (immortalized human bone marrow endothelial cell lines); assay: as above; type: cell-based; settings: 96 h, incubation 4 days
Protocol: as §1, §2, §3, §4, §5

[5] = system: K562 (leukemia); assay: as above; type: cell-based; settings: Homo sapiens, 96 h, incubation 4 days
Protocol: as §1, §2, §3, §4, §5

[6] = system: U937 (myeloma); assay: as above; type: cell-based; settings: Homo sapiens, U-937, 96 h, incubation 4 days
Protocol: as §1, §2, §3, §4, §5

[7] = system: HT29 human colon tumor cells; assay: in vivo antineoplastic activity, NOD-SCID mice xenografted with HT29 human tumour cells
Protocol: (§6) The animal model chosen is that of severe combined immunodeficient (NOD-SCID) mice having received a xenograft of human tumor cells.
(§7) Male and female NOD-SCID mice, more than 3 months old, were raised in an environment of strict sterility, in an insulator ventilated with filtered air and sterilized, at 22° C. and 40% humidity, with a day-12 h/night-12 h cycle. The cages, feeding bottles and the water were sterilized in an autoclave at 120° C. for 30 minutes and the food as well as the bedding were treated with γ-irradiation. All handling took place in aseptic conditions under a laminar flow hood.
The mice were subjected to general anaesthesia by i.p. injection of 0.3 to 0.4 ml of hypnomidate at 2 mg/ml. 1×10^7 HT29 human colon tumor cells in suspension in 200 μl of PBS were then injected sub-cutaneously, into the backs of the mice. […]
50 mg of 5-fluorouracil (Sigma) were dissolved in 8 ml of water and the solution obtained was sterilized by filtration on a membrane with 0.22 μm porosity. […]

[8] = Protocol: as §6, §7
150 mg of cyclophosphamide (Sigma) were dissolved in 8 ml of water and the solution obtained was sterilized by filtration on a membrane with 0.22 μm porosity.
50 mg of 5-fluorouracil (Sigma) were dissolved in 8 ml of water and the solution obtained was sterilized by filtration on a membrane with 0.22 μm porosity.
100 mg of dihydrated harmalacidine hydrochloride were dissolved in 8 ml of water and the solution obtained was sterilized by filtration on a membrane with 0.22 μm porosity. The mice received either 25, 50, or 100 mg/kg/day of harmalacidine alone, or a mixture of 25 or 50 mg/kg/day of harmalacidine+50 mg/kg/day of cyclophosphamide.

[9] = system: HT29 human colon tumor cells; assay: in vivo antineoplastic activity, NOD-SCID mice xenografted with HT29 human tumour cells; remark: listed apart in the source
[10] = system: malignant and endothelial cells tested; assay: summary of in vitro cytotoxicity over all lines tested; type: cell-based, human; settings: Homo sapiens, Endothelial cell, range over the cell lines; read-out: IC50 vis-à-vis malignant and endothelial cells tested
Protocol: as §1, §2, §3, §4, §5
To summarize, the IC50 vis-à-vis malignant and endothelial cells tested is the following: […]

[11] = system: murine tumorous cells; settings: cited from earlier work

COc1ccc2c3c([nH]c2c1)C(=O)NCC3 [Harmalacidine (C), harmalacidine]
IC50 [1]: 10.5 µg/mL and 34.4 µM
IC50 [2]: 12 µg/mL and 55.5 µM
IC50 [3]: 15.5 µg/mL and 71.7 µM
IC50 [4]: 28 µg/mL and 130 µM
IC50 [5]: 12.5 µg/mL and 57.8 µM
IC50 [6]: 29 µg/mL and 134 µM
Average volume of the tumours of the treated mice compared to the average volume of the tumours of the non-treated mice (T/C) (%) ([7]; harmalacidine 25 mg/kg/day alone per os, Day 15): 81%
Average volume of the tumours of the treated mice compared to the average volume of the tumours of the non-treated mice (T/C) (%) ([7]; harmalacidine 25 mg/kg/day alone per os, Day 30): 72%
Average volume of the tumours of the treated mice compared to the average volume of the tumours of the non-treated mice (T/C) (%) ([7]; harmalacidine 25 mg/kg/day alone per os, Day 40): 70%
Average volume of the tumours of the treated mice compared to the average volume of the tumours of the non-treated mice (T/C) (%) ([7]; harmalacidine 25 mg/kg/day alone per os, Day 50): 65%
Average volume of the tumours of the treated mice compared to the average volume of the tumours of the non-treated mice (T/C) (%) ([7]; harmalacidine 25 mg/kg/day alone per os, Day 60): 77%
Average volume of the tumours of the treated mice compared to the average volume of the tumours of the non-treated mice (T/C) (%) ([7]; harmalacidine 50 mg/kg/day alone per os, Day 15): 42%
Average volume of the tumours of the treated mice compared to the average volume of the tumours of the non-treated mice (T/C) (%) ([7]; harmalacidine 50 mg/kg/day alone per os, Day 30): 56%
Average volume of the tumours of the treated mice compared to the average volume of the tumours of the non-treated mice (T/C) (%) ([7]; harmalacidine 50 mg/kg/day alone per os, Day 40): 48%
Average volume of the tumours of the treated mice compared to the average volume of the tumours of the non-treated mice (T/C) (%) ([7]; harmalacidine 50 mg/kg/day alone per os, Day 50): 45%
Average volume of the tumours of the treated mice compared to the average volume of the tumours of the non-treated mice (T/C) (%) ([7]; harmalacidine 50 mg/kg/day alone per os, Day 60): 57%
state of the mice (printed in the T/C column) ([8]; harmalacidine 100 mg/kg/day alone, Day 15): dead
tolerance of the dose ([8]; harmalacidine 100 mg/kg/day, for more than 10 days): not tolerated

COc1ccc2c(c1)[nH]c1c(C)nccc12 [Harmine (A), harmine]
Average volume of the tumours of the treated mice compared to the average volume of the tumours of the non-treated mice (T/C) (%) ([9]; harmine 100 mg/kg/day per os, Day 40): 77%
Average volume of the tumours of the treated mice compared to the average volume of the tumours of the non-treated mice (T/C) (%) ([9]; harmine 125 mg/kg/day per os, Day 30): 55%
Average volume of the tumours of the treated mice compared to the average volume of the tumours of the non-treated mice (T/C) (%) ([9]; harmine 175 mg/kg/day per os, Day 40): 10%
Average volume of the tumours of the treated mice compared to the average volume of the tumours of the non-treated mice (T/C) (%) ([9]; harmine 175 mg/kg/day per os, Day 50): 30%
IC50 [1]: 2.9 µg/mL and 13.7 µM
IC50 [2]: 4.6 µg/mL and 21.7 µM
IC50 [3]: 3.2 µg/mL and 15.1 µM
IC50 [4]: 3.5 µg/mL and 16.5 µM
IC50 [6]: 16.5 µM
inhibitory action on the growth of the tumors ([7]; harmine 100 mg/kg/day per os): very weak effect
Average volume of the tumours of the treated mice compared to the average volume of the tumours of the non-treated mice (T/C) (%) ([7]; harmine 100 mg/kg/day per os, Day 30): 74%
Average volume of the tumours of the treated mice compared to the average volume of the tumours of the non-treated mice (T/C) (%) ([7]; harmine 100 mg/kg/day per os, Day 50): 84%
Average volume of the tumours of the treated mice compared to the average volume of the tumours of the non-treated mice (T/C) (%) ([7]; harmine 100 mg/kg/day per os, Day 60): 105%
Average volume of the tumours of the treated mice compared to the average volume of the tumours of the non-treated mice (T/C) (%) ([7]; harmine 125 mg/kg/day per os, Day 40): 58%
Average volume of the tumours of the treated mice compared to the average volume of the tumours of the non-treated mice (T/C) (%) ([7]; harmine 125 mg/kg/day per os, Day 50): 54%
Average volume of the tumours of the treated mice compared to the average volume of the tumours of the non-treated mice (T/C) (%) ([7]; harmine 125 mg/kg/day per os, Day 60): 67%
Average volume of the tumours of the treated mice compared to the average volume of the tumours of the non-treated mice (T/C) (%) ([7]; harmine 150 mg/kg/day per os, Day 30): 41%
Average volume of the tumours of the treated mice compared to the average volume of the tumours of the non-treated mice (T/C) (%) ([7]; harmine 150 mg/kg/day per os, Day 40): 46%
Average volume of the tumours of the treated mice compared to the average volume of the tumours of the non-treated mice (T/C) (%) ([7]; harmine 150 mg/kg/day per os, Day 50): 42%
Average volume of the tumours of the treated mice compared to the average volume of the tumours of the non-treated mice (T/C) (%) ([7]; harmine 150 mg/kg/day per os, Day 60): 51%
Average volume of the tumours of the treated mice compared to the average volume of the tumours of the non-treated mice (T/C) (%) ([7]; harmine 175 mg/kg/day per os, Day 30): 40%
Average volume of the tumours of the treated mice compared to the average volume of the tumours of the non-treated mice (T/C) (%) ([7]; harmine 175 mg/kg/day per os, Day 60): 40%
T/C ([7]; harmine 175 mg/kg/day per os, for the entire duration of treatment): 40%
tolerance of the dose ([8]; harmine 200 mg/kg/day per os, the mice died after a few days of treatment): not tolerated
IC50 [10]: 2.9 µg/mL to 4.6 µg/mL and 14 µM to 22 µM

Peganine [Peganine (B)]
concentration inhibiting 50% of cell growth (IC50) [11]: inactive
